Our source for the IC50 and inhibition values is ChEMBL document CHEMBL1131744, “Amino-substituted thalidomide analogs: potent inhibitors of TNF-alpha production” (Bioorg Med Chem Lett, 1999).

The test system of experiment [1] is PBMC. Put plainly: Inhibition of lipopolysaccharide stimulated TNF-alpha release in human PBMC. The class given is functional, cell-based.
The species named for experiment [2] is Homo sapiens. Put plainly: Inhibition of lipopolysaccharide stimulated TNF-alpha release in human whole blood. It is filed as functional.
For experiment [3], the system named is PBMC. Put plainly: Inhibition of lipopolysaccharide stimulated TNF-alpha release in human PBMC at 100 uM. It is filed as functional.
Experiment [4] deals with T1, Phosphodiesterase 4 (Homo sapiens) (UniProt P27815+Q08499+Q07343+Q08493). Put plainly: Inhibition of Phosphodiesterase 4 from U937 cells at 100 uM. It is filed as cell-based. The note with it: U-937.
The target in experiment [5] is T1, Phosphodiesterase 4 (Homo sapiens). Put plainly: Inhibition of PDE4 from U937 cells at 100 uM. The note with it: U-937. The class given is cell-based.

As usually defined, the IC50 is the point on the concentration scale where inhibition reaches its midpoint. One may read the inhibition as how much of the control response was suppressed. Read a low inhibition as a response near the control.

Turning to `Nc1cccc2c1C(=O)N([C@H]1CCC(=O)NC1=O)C2=O`, the values for the IC50 in experiment [1] and in experiment [2] were 3.9 nM and 14 nM, respectively. In experiment [3], this compound yielded an inhibition at 100 µM of 99%.
Take `Nc1ccc2c(c1)C(=O)N(C1CCC(=O)NC1=O)C2=O` (stereo unspecified): 100 µM produced 55% inhibition in experiment [3].
On to `Nc1cccc2c1C(=O)N(C1CCC(=O)NC1=O)C2` (stereo unspecified), for which testing at 100 µM in experiment [3] gave an inhibition of 18%.
As to `Nc1cccc2c1C(=O)N([C@@H]1CCC(=O)NC1=O)C2=O`, the values for the IC50 in experiment [1] and in experiment [2] were 93 nM and 73 nM, respectively. In experiment [3], this compound displayed an inhibition at 100 µM of 85%.
In turn, `Nc1ccc2c(c1)CN(C1CCC(=O)NC1=O)C2=O` (stereo unspecified) registered an inhibition at 100 µM in experiment [3] of 15%.
As for `Nc1cccc2c1CN(C1CCC(=O)NC1=O)C2=O` (stereo unspecified) [LENALIDOMIDE], the inhibition in experiment [4] is under 50%. In experiment [2], this compound had an IC50 of 480 nM. Also, at 100 µM the inhibition in experiment [3] was 74%.
With `CC1(N2C(=O)c3cccc(N)c3C2=O)CCC(=O)NC1=O` (stereo unspecified), the IC50 in experiment [1] was 44 nM; in experiment [2], 216 nM. Moreover, in experiment [5], the inhibition was under 50%. Besides, 100 µM produced 98% inhibition in experiment [3].
In experiment [4], `Nc1cccc2c1C(=O)N(C1CCC(=O)NC1=O)C2=O` (stereo unspecified) [POMALIDOMIDE] displayed an inhibition of under 50%. Moreover, the values for the IC50 in experiment [1] and in experiment [2] were 13 nM and 25 nM, respectively. The compound further returned an inhibition at 100 µM in experiment [3] of 95%.
In experiment [3], `Nc1ccc2c(c1)C(=O)N(C1CCC(=O)NC1=O)C2` (stereo unspecified) came in with an inhibition at 100 µM of 12%.
